Target: T1, recombinant human oestrogen receptor (Homo sapiens, UniProt P03372)
T1 construct: made in house; host or cells: SF9 insect cells (ATCC CRL1711), baculovirus
T1 sequence (P03372 1-595): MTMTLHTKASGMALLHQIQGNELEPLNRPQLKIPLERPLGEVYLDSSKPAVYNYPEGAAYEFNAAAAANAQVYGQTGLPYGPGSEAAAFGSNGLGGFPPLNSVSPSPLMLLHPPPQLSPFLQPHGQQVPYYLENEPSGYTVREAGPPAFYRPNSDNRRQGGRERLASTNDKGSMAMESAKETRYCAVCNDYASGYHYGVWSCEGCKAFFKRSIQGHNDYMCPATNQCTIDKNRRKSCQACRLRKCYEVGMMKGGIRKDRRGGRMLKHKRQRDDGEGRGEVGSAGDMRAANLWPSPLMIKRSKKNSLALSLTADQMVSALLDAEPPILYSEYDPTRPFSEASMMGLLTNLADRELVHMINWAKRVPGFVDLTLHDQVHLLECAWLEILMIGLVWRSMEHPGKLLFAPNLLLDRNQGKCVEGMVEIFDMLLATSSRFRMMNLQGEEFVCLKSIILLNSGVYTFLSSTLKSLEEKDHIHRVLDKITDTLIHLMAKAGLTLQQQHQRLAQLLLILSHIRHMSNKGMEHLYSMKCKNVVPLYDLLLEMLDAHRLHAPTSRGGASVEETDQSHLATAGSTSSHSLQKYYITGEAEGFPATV
Experiment: Human oestrogen receptor (HOR) competitive binding with tritiated oestradiol, relative bond affinity (RBA)
Conditions: RBA=100(CH)/(CX), incubation at 0° C. for 24 hours, cytosolic extract of SF9 cells
From the text: A cytosolic extract of SF9 cells containing the recombinant human oestrogen receptor is obtained by overexpression in an insect-Baculovirus cell system, according to the general methodology described by N. R. WEBB et al. (Journal of Methods in Cell and Molecular Biology, (1990) Vol.2 No. 4, 173-188) and the application of which is described for the expression of human hormonal receptors, for example the human glucocorticoid receptor (G. SRINIVASAN et al. Molecular Endocrinology (1990) vol 4 No. 2 209-216).
The BaculoGold Transfection Kit (PharMingen, reference 21000K) is used to generate the recombinant baculovirus containing the cDNA fragment described in the expression vector HEGO by L. TORA et al. (The EMBO Journal (1989) vol. 8 No. 7 1981-1986), containing the region coding for the wild-type human oestrogen receptor with a glycine in position 400. […]
The supernatant is incubated at 0° C. for 24 hours with a constant concentration (T) of tritiated oestradiol in the presence of increasing concentrations of either unlabelled oestradiol (0-1000×10^−9M), or of unlabelled product to be tested (0-25000×10^−9M). The concentration of bound tritiated oestradiol (B) is then measured in each incubate by the technique of adsorption with carbon dextran. […]
The relative bond affinity (RBA) of the test product is calculated by the equation: RBA=100(CH)/(CX).

Row | SMILES | Relative bond affinity (RBA), HOR, oestradiol = 100, 24 hours
1 | CN(C)CCOc1ccc(-c2c(-c3ccc(O)cc3)ccc3cc(O)ccc23)cc1 [Example 1, 5-[-4-[2-(Dimethylamino)ethoxy]phenyl] 6-(4-Hydroxyphenyl) 2-Naphthalenol] | 28
2 | Oc1ccc(-c2ccc3cc(O)ccc3c2Cl)cc1 [Example 2, 5-Chloro-6-(4-hydroxyphenyl)-2-naphthalenol] | 49
